# Test results from patent US20250195602A1, “Compositions and Methods for Treating Neuropathy” (Creative Bio-Peptides, Inc., priority 2021, published 2025).
# Where two headings read alike, the source gives them in different places.
# Assays:
# [1] = system: chemotherapy induced peripheral neuropathy (CIPN) caused by paclitaxel
# Description: Morphine was used as a positive control for pain response.
# The ability of RAP-103 was tested to treat chemotherapy induced peripheral neuropathy (CIPN) caused by paclitaxel in rodents. This assay uses the chemotherapeutic agent paclitaxel to elicit a chronic pain state. Once established, pain in these animals can persist for weeks.
# Rats were given i.p. injections of paclitaxel (2 mg/kg) on days 0, 2, 4, and 6 to induce a chronic pain state. […] On day 21 morphine (2 mg/Kg) was also administered to animals as a positive control. Pain was assessed 60 minutes after morphine or RAP-103 administration on the left rear paw on day 21 with a series of von Frey filaments with logarithmically incrementing stiffness applied perpendicular to the midplantar region of the hind paw. The paw withdrawal force (grams, g) threshold was determined.
# [2] = Pharmacokinetics and brain entry of RAP-103 in rats (oral gavage and IV); assay type: in vivo
# [3] = Pharmacokinetics and brain entry of RAP-103 in guinea pigs (oral gavage and IV); assay type: in vivo
# [4] = Clinical observations and body weights over seven days after RAP-103 dosing (acute toxicity); assay type: in vivo, Rhesus macaques; Macaca mulatta
# [5] = Pharmacokinetics of RAP-103 in non-human primates (plasma levels, bioavailability); assay type: in vivo, Rhesus macaques; Macaca mulatta; details: for bioavailability: rhesus monkey, in vivo
# Description: In non-human primates (rhesus monkeys) RAP-103 was dosed once on Day 1 by intravenous bolus injection at 1 mg/kg and plasma levels determined. […] Drug in plasma after a single IV dose (1 mg/Kg) was still measurable at anticipated therapeutic levels 96 hrs. post-dose in non-human primates as shown in FIG. 2B.
# [6] = IV or oral gavage dosing, FIG. 2A
structure (smiles),measurement,setting,value
"C[C@H](O)[C@@H](N)C(=O)N[C@@H](C(=O)N[C@H](CC(N)=O)C(=O)N[C@H](Cc1ccc(O)cc1)C(=O)N[C@@H](C(=O)O)[C@H](C)O)[C@H](C)O [RAP-103, All D-peptide-Thr-Thr-Asn-Tyr-Thr]",Treatment of paclitaxel induced CIPN compared with standard of care (morphine),"[1]; animal model of CIPN, RAP-103 0.05 mg/kg vs morphine 2 mg/Kg",at least equivalent
same,Dose lower on a weight basis than morphine at at least equivalent effect,[1]; animal model of paclitaxel induced CIPN,about 40 fold
same,Paw withdraw threshold compared to vehicle,"[1]; rats treated with paclitaxel, FIG. 4",increased paw withdraw threshold
same,Effect on chronic pain caused by repeated administration of paclitaxel,"[1]; rats, 0.05 mg/kg daily i.p. days 17-21 post paclitaxel, assessed 60 minutes after dosing on day 21, FIG. 4",reduced chronic pain
same,Brain level compared to plasma levels,[2],preferentially enters the brain
same,Brain entry by oral compared to IV dosing,[2]; FIG. 2A,preferentially entered the brain by oral
same,Brain entry,[2]; [6],quickly entered the brain
same,Persistence at therapeutic levels in brain,[2]; [6],at least 24 hrs
same,Brain level compared to plasma levels,[3],preferentially enters the brain
same,Brain entry by oral compared to IV dosing,[3]; FIG. 2A,preferentially entered the brain by oral
same,Brain entry,[3]; [6],quickly entered the brain
same,Persistence at therapeutic levels in brain,[3]; [6],at least 24 hrs
same,Acute toxicity,[4],no acute toxicity
same,RAP-103-related changes in body weights,[4],no RAP-103-related changes
same,RAP-103-related changes in clinical observations,[4],no RAP-103-related changes
same,Brain entry,"[5]; non-human primates (Rhesus macaque), oral and IV dosing",quickly entered the brain
same,Time post-dose at which drug in plasma was still measurable at anticipated therapeutic levels,"[5]; non-human primates, single IV dose 1 mg/Kg, FIG. 2B",≥ 96 h
same,bioavailability,"[5]; 1 mg/kg, female rhesus monkeys, 1 mg/kg dose level, read-out: Absolute bioavailability",88%
same,bioavailability,"[5]; po, 1 mg/kg, male rhesus monkeys, 1 mg/kg dose level, read-out: Absolute bioavailability",89%
same,bioavailability,"[5]; po, 1 mg/kg, non-human primates, read-out: Oral bioavailability",88%
same,"AUC 0-T, male versus female monkeys","[5]; rhesus monkeys, 1 mg/kg",comparable
same,"Cmax, male versus female monkeys","[5]; rhesus monkeys, 1 mg/kg",comparable
